Experimental data from US20260007681A1, “INDOLE DERIVATIVES AS ESTROGEN RECEPTOR DEGRADERS” (REGENTS OF THE UNIVERSITY OF MICHIGAN, priority 2022, published 2026).

target: ER (Homo sapiens (Human), UniProt P03372); test: Western blot analysis (Compounds B1-B278); assay type: cell-based; conditions: ER degradation by traditional Western blot; DC50 classes
In short: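 Compound-treated cells were lysed in RIPA buffer (Tris.HCl pH 7.6, 1% NP-40, deoxycholate, 0.1% SDS) with protease inhibitors; equal protein was resolved on 10% SDS-PAGE, transferred to PVDF and immunoblotted. Band intensities were quantified and normalized to GAPDH.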

ER, sequence (P03372 whole entry): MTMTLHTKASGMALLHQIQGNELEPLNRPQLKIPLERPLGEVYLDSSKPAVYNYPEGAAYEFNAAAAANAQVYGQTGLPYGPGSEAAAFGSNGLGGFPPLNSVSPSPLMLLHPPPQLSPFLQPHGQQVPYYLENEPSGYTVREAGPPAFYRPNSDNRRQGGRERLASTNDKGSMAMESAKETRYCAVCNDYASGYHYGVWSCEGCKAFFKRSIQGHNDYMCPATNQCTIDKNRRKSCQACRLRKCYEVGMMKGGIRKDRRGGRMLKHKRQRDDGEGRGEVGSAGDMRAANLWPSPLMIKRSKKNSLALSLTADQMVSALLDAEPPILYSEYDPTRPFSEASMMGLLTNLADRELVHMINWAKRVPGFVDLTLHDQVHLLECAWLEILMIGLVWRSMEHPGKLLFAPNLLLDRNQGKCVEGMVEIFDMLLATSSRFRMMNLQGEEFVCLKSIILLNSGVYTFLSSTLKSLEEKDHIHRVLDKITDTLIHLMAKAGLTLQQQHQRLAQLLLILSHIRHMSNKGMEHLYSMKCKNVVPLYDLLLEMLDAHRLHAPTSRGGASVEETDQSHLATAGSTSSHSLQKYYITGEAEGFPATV

SMILES	Traditional Western Degradation Potency
C[C@@H]1Cc2c([nH]c3ccccc23)[C@@H](c2c(F)cc(C3CCC(C(=O)N4CCC(N5Cc6cc7c(cc6C5)C(=O)N(C5CCC(=O)NC5=O)C7=O)CC4)CC3)cc2F)N1CC(F)F (stereo partly drawn) [Compound B77, 6-(1-(4-(4-((1R,3R)-2-(2,2-difluoroethyl)-3-methyl-2,3,4,9-tetrahydro-1H-pyrido[3,4-b]indol-1-yl)-3,5-difluorophenyl)cyclohexane-1-carbonyl)piperidin-4-yl)-2-(2,6-dioxopiperidin-3-yl)-6,7-dihydropyrrolo[3,4-f]isoindole-1,3(2H,5H)-dione]	A (“A”: <10 nM)
C[C@@H]1Cc2c([nH]c3ccccc23)[C@@H](c2c(F)cc(CN3CCC4(CC3)CC(CN3Cc5cc6c(cc5C3)C(=O)N(C3CCC(=O)NC3=O)C6=O)C4)cc2F)N1CC(F)F (stereo partly drawn) [Compound B98, 6-((7-(4-((1R,3R)-2-(2,2-difluoroethyl)-3-methyl-2,3,4,9-tetrahydro-1H-pyrido[3,4-b]indol-1-yl)-3,5-difluorobenzyl)-7-azaspiro[3.5]nonan-2-yl)methyl)-2-(2,6-dioxopiperidin-3-yl)-6,7-dihydropyrrolo[3,4-f]isoindole-1,3(2H,5H)-dione]	C (“C”: >100 nM)
C[C@@H]1Cc2c([nH]c3ccccc23)[C@@H](c2c(F)cc(N3CCCC4(CCN(C(=O)CN5Cc6cc7c(cc6C5)C(=O)N(C5CCC(=O)NC5=O)C7=O)C4)C3)cc2F)N1CC(F)F (stereo partly drawn) [Compound B21, 6-(2-(7-(4-((1R,3R)-2-(2,2-difluoroethyl)-3-methyl-2,3,4,9-tetrahydro-1H-pyrido[3,4-b]indol-1-yl)-3,5-difluorophenyl)-2,7-diazaspiro[4.5]decan-2-yl)-2-oxoethyl)-2-(2,6-dioxopiperidin-3-yl)-6,7-dihydropyrrolo[3,4-f]isoindole-1,3(2H,5H)-dione]	C (“C”: >100 nM)
C[C@@H]1Cc2c([nH]c3ccccc23)[C@@H](c2c(F)cc(N3CCC4(CCN(CC5Cc6cc7c(cc6C5)C(=O)N(C5CCC(=O)NC5=O)C7=O)CC4)CC3)cc2F)N1CC(F)(F)F (stereo partly drawn) [Compound B204, 6-((9-(3,5-difluoro-4-((1R,3R)-3-methyl-2-(2,2,2-trifluoroethyl)-2,3,4,9-tetrahydro-1H-pyrido[3,4-b]indol-1-yl)phenyl)-3,9-diazaspiro[5.5]undecan-3-yl)methyl)-2-(2,6-dioxopiperidin-3-yl)-6,7-dihydrocyclopenta[f]isoindole-1,3(2H,5H)-dione]	C (“C”: >100 nM)
C[C@@H]1Cc2c([nH]c3ccccc23)[C@@H](c2c(F)cc(N3CCC4(CC3)CC(C(=O)N3CCC(N5Cc6cc7c(cc6C5)C(=O)N(C5CCC(=O)NC5=O)C7)CC3)C4)cc2F)N1CC(F)F (stereo partly drawn) [Compound B41, 3-(6-(1-(7-(4-((1R,3R)-2-(2,2-difluoroethyl)-3-methyl-2,3,4,9-tetrahydro-1H-pyrido[3,4-b]indol-1-yl)-3,5-difluorophenyl)-7-azaspiro[3.5]nonane-2-carbonyl)piperidin-4-yl)-1-oxo-3,5,6,7-tetrahydropyrrolo[3,4-f]isoindol-2(1H)-yl)piperidine-2,6-dione]	A (“A”: <10 nM)
C[C@@H]1Cc2c([nH]c3ccccc23)[C@@H](c2ccc(N3CCC4(CCN(CC(=O)N5Cc6cc7c(cc6C5)C(=O)N(C5CCC(=O)NC5=O)C7=O)CC4)CC3)cn2)N1CC(F)F (stereo partly drawn) [Compound B230, 6-(2-(9-(6-((1S,3R)-2-(2,2-difluoroethyl)-3-methyl-2,3,4,9-tetrahydro-1H-pyrido[3,4-b]indol-1-yl)pyridin-3-yl)-3,9-diazaspiro[5.5]undecan-3-yl)acetyl)-2-(2,6-dioxopiperidin-3-yl)-6,7-dihydropyrrolo[3,4-f]isoindole-1,3(2H,5H)-dione]	C (“C”: >100 nM)
C[C@@H]1Cc2c([nH]c3ccccc23)[C@@H](c2c(F)cc(N3CCC(N4CCC(CN5Cc6cc7c(cc6C5)C(=O)N(C5CCC(=O)NC5=O)C7=O)CC4)CC3)cc2F)N1CC(F)F (stereo partly drawn) [Compound B58, 6-((1′-(4-((1R,3R)-2-(2,2-difluoroethyl)-3-methyl-2,3,4,9-tetrahydro-1H-pyrido[3,4-b]indol-1-yl)-3,5-difluorophenyl)-[1,4′-bipiperidin]-4-yl)methyl)-2-(2,6-dioxopiperidin-3-yl)-6,7-dihydropyrrolo[3,4-f]isoindole-1,3(2H,5H)-dione]	C (“C”: >100 nM)

Next, values leading:

Traditional Western Degradation Potency	SMILES
B (“B”: 10-100 nM)	C[C@@H]1Cc2c([nH]c3ccccc23)[C@@H](c2c(F)cc(N3CC(C(=O)N4CC(CN5Cc6cc7c(cc6C5)C(=O)N(C5CCC(=O)NC5=O)C7=O)C4)C3)cc2F)N1CC(F)F (stereo partly drawn) [Compound B203, 6-((1-(1-(4-((1R,3R)-2-(2,2-difluoroethyl)-3-methyl-2,3,4,9-tetrahydro-1H-pyrido[3,4-b]indol-1-yl)-3,5-difluorophenyl)azetidine-3-carbonyl)azetidin-3-yl)methyl)-2-(2,6-dioxopiperidin-3-yl)-6,7-dihydropyrrolo[3,4-f]isoindole-1,3(2H,5H)-dione]
C (“C”: >100 nM)	C[C@@H]1Cc2c([nH]c3ccccc23)[C@@H](c2c(F)cc(N3CC(C(=O)N4CCC(N5Cc6cc7c(cc6C5)C(=O)N(C5CCC(=O)NC5=O)C7=O)CC4)C3)cc2F)N1CC(F)F (stereo partly drawn) [Compound B209, 6-(1-(1-(4-((1R,3R)-2-(2,2-difluoroethyl)-3-methyl-2,3,4,9-tetrahydro-1H-pyrido[3,4-b]indol-1-yl)-3,5-difluorophenyl)azetidine-3-carbonyl)piperidin-4-yl)-2-(2,6-dioxopiperidin-3-yl)-6,7-dihydropyrrolo[3,4-f]isoindole-1,3(2H,5H)-dione]
B (“B”: 10-100 nM)	C[C@@H]1Cc2c([nH]c3ccccc23)[C@@H](c2c(F)cc(N3CC4(CCN(CC(=O)N5Cc6cc7c(cc6C5)C(=O)N(C5CCC(=O)NC5=O)C7=O)CC4)C3)cc2F)N1CC(F)F (stereo partly drawn) [Compound B37, 6-(2-(2-(4-((1R,3R)-2-(2,2-difluoroethyl)-3-methyl-2,3,4,9-tetrahydro-1H-pyrido[3,4-b]indol-1-yl)-3,5-difluorophenyl)-2,7-diazaspiro[3.5]nonan-7-yl)acetyl)-2-(2,6-dioxopiperidin-3-yl)-6,7-dihydropyrrolo[3,4-f]isoindole-1,3(2H,5H)-dione]
C (“C”: >100 nM)	COc1nc(C2CCC(C(=O)N3CCC(N4Cc5cc6c(cc5C4)C(=O)N(C4CCC(=O)NC4=O)C6=O)CC3)CC2)ccc1[C@@H]1c2[nH]c3ccccc3c2C[C@@H](C)N1CC(F)F (stereo partly drawn) [Compound B113, 6-(1-(4-(5-((1R,3R)-2-(2,2-difluoroethyl)-3-methyl-2,3,4,9-tetrahydro-1H-pyrido[3,4-b]indol-1-yl)-6-methoxypyridin-2-yl)cyclohexane-1-carbonyl)piperidin-4-yl)-2-(2,6-dioxopiperidin-3-yl)-6,7-dihydropyrrolo[3,4-f]isoindole-1,3(2H,5H)-dione]
A (“A”: <10 nM)	C[C@@H]1Cc2c([nH]c3ccccc23)[C@@H](c2c(F)cc(N3CC4(CN(CC(=O)N5Cc6cc7c(cc6C5)C(=O)N(C5CCC(=O)NC5=O)C7)C4)C3)cc2F)N1CC(F)F (stereo partly drawn) [Compound B8, 3-(6-(2-(6-(4-((1R,3R)-2-(2,2-difluoroethyl)-3-methyl-2,3,4,9-tetrahydro-1H-pyrido[3,4-b]indol-1-yl)-3,5-difluorophenyl)-2,6-diazaspiro[3.3]heptan-2-yl)acetyl)-1-oxo-3,5,6,7-tetrahydropyrrolo[3,4-f]isoindol-2(1H)-yl)piperidine-2,6-dione]
C (“C”: >100 nM)	C[C@@H]1Cc2c([nH]c3ccccc23)[C@@H](c2c(F)cc(C3CCC(CN4CC(CN5Cc6cc7c(cc6C5)C(=O)N(C5CCC(=O)NC5=O)C7=O)C4)CC3)cc2F)N1CC(F)F (stereo partly drawn) [Compound B83, 6-((1-((4-(4-((1R,3R)-2-(2,2-difluoroethyl)-3-methyl-2,3,4,9-tetrahydro-1H-pyrido[3,4-b]indol-1-yl)-3,5-difluorophenyl)cyclohexyl)methyl)azetidin-3-yl)methyl)-2-(2,6-dioxopiperidin-3-yl)-6,7-dihydropyrrolo[3,4-f]isoindole-1,3(2H,5H)-dione]
C (“C”: >100 nM)	C[C@@H]1Cc2c([nH]c3ccccc23)[C@@H](c2c(F)cc(N3CCC(CC(=O)N4Cc5cc6c(cc5C4)C(=O)N(C4CCC(=O)NC4=O)C6)CC3)cc2F)N1CC(F)F (stereo partly drawn) [Compound B44, 3-(6-(2-(1-(4-((1R,3R)-2-(2,2-difluoroethyl)-3-methyl-2,3,4,9-tetrahydro-1H-pyrido[3,4-b]indol-1-yl)-3,5-difluorophenyl)piperidin-4-yl)acetyl)-1-oxo-3,5,6,7-tetrahydropyrrolo[3,4-f]isoindol-2(1H)-yl)piperidine-2,6-dione]
B (“B”: 10-100 nM)	C[C@H]1Cc2c([nH]c3ccccc23)[C@H](c2c(F)cc(N3CC4(CCCN(C(=O)CN5Cc6cc7c(cc6C5)C(=O)N(C5CCC(=O)NC5=O)C7=O)C4)C3)cc2F)N1CC(F)F (stereo partly drawn) [Compound B23, 6-(2-(2-(4-((1S,3S)-2-(2,2-difluoroethyl)-3-methyl-2,3,4,9-tetrahydro-1H-pyrido[3,4-b]indol-1-yl)-3,5-difluorophenyl)-2,6-diazaspiro[3.5]nonan-6-yl)-2-oxoethyl)-2-(2,6-dioxopiperidin-3-yl)-6,7-dihydropyrrolo[3,4-f]isoindole-1,3(2H,5H)-dione]
C (“C”: >100 nM)	C[C@@H]1Cc2c([nH]c3ccccc23)[C@@H](c2c(F)cc(C3CCC(C(=O)N4CCC(N5Cc6cc7c(cc6C5)C(=O)N(C5CCC(=O)NC5=O)C7=O)CC4)CC3)cc2F)N1CC(F)(F)CO (stereo partly drawn) [Compound B110, 6-(1-(4-(4-((1R,3R)-2-(2,2-difluoro-3-hydroxypropyl)-3-methyl-2,3,4,9-tetrahydro-1H-pyrido[3,4-b]indol-1-yl)-3,5-difluorophenyl)cyclohexane-1-carbonyl)piperidin-4-yl)-2-(2,6-dioxopiperidin-3-yl)-6,7-dihydropyrrolo[3,4-f]isoindole-1,3(2H,5H)-dione]
